What is called IC50 is the point on the concentration scale where inhibition reaches its midpoint. Low values mean greater potency in that assay, high ones weaker potency in that assay. What is called inhibition is the change of the read-out against control, counted positive when it falls.

Series [1] deals with Voltage-gated inwardly rectifying potassium channel KCNH2 (Homo sapiens, UniProt Q12809).
In series [2] the target is T1, Serine/threonine-protein kinase Chk1 (Homo sapiens, UniProt O14757).
T1 sequence (O14757 whole entry): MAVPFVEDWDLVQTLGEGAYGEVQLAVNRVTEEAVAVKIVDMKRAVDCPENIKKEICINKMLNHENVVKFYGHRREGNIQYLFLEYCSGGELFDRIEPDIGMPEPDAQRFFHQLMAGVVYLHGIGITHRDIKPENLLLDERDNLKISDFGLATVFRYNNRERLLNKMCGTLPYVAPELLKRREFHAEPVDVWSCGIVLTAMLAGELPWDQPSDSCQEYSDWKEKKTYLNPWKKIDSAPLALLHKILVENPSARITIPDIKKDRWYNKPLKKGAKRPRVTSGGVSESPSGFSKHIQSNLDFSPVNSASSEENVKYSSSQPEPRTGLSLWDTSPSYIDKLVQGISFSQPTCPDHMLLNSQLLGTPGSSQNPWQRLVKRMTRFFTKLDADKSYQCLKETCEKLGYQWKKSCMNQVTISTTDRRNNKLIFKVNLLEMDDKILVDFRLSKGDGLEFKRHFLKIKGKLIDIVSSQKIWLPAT

Series [3] in a line: Plasma concentration in BALB/c mouse at 10 mg/kg, po at 6 hrs. The class given is ADME, organism-based. Details: dose 10 mg/kg, route oral.
Series [4] is described as follows: Plasma concentration in BALB/c mouse at 10 mg/kg, po at 1 hr. The series is classed as ADME, organism-based. Further details: dose 10 mg/kg, route oral.
The nature of series [5]: Plasma concentration in BALB/c mouse at 10 mg/kg, iv at 6 hrs administered as bolus dose. Details: dose 10 mg/kg, route intravenous. The class given is ADME, organism-based.
A short description of series [6]: Plasma concentration in BALB/c mouse at 10 mg/kg, iv at 1 hr administered as bolus dose. The series is classed as ADME, organism-based. Further details: dose 10 mg/kg, route intravenous.
A short description of another series: in vitro. As to conditions: mouse, liver microsomes.
Series [7] deals with Mus musculus. The series can be described thus: Toxicity in athymic mouse xenografted with human HT-29 cells assessed as body weight loss at 100 mg/kg, iv tid for 7 days. The series is classed as organism-based. Further details: dose 100 mg/kg, route intravenous. Particulars: in vivo, 168 h. In general terms: In xenograft studies the graft and the host belong to different species.

The test system of series [8] is Mus musculus. The series is described as follows: Toxicity in athymic mouse xenografted with human SW620 cells assessed as body weight loss at 100 mg/kg, iv tid for 4 days. The series is classed as organism-based, SW-620. Further details: dose 100 mg/kg, route intravenous. As to conditions: in vivo, 96 h.
Series [9] has as its system Mus musculus. The series can be described thus: Toxicity in athymic mouse xenografted with human Calu6 cells assessed as body weight loss at 100 mg/kg, iv tid for 7 days. The class given is organism-based, Calu-6. Details: dose 100 mg/kg, route intravenous. As to conditions: in vivo, 168 h.
Another series has as its system SW-620. The series is described as follows: Antitumor activity against human SW620 cells xenografted in athymic mouse assessed as tumor growth delay at 100 mg/kg, iv tid for 4 days (reference value: 5.3 1.3). The series is classed as functional.
Series [10] deals with HT-29. The series is described as follows: Antitumor activity against human HT-29 cells xenografted in athymic mouse assessed as tumor growth delay at 100 mg/kg, iv tid for 7 days (reference value: 8.8 4.8). The class given is functional.
A further series has as its system Calu-6. The series is described as follows: Antitumor activity against human Calu6 cells xenografted in athymic mouse assessed as tumor growth delay at 100 mg/kg, iv tid for 7 days (reference value: 6.9 1.6). The class given is functional.
Series [11] concerns the target T2, hERG (KCNH2) (Homo sapiens, UniProt Q12809). The series is described as follows: Inhibition of human ERG overexpressed in HEK cells at 10 uM. The series is classed as cell-based, HEK293. As to conditions: HEK cells overexpressing human ERG.
For the next series, the system named is Caco-2. As to conditions: human.
In series [12] the test system is Mus musculus. The series is described as follows: Toxicity in athymic mouse xenografted with human HT-29 cells assessed as body weight loss at 12.5 mg/kg, ip tid for 7 days. The series is classed as organism-based. Further details: dose 12.5 mg/kg, route intraperitoneal. Particulars: in vivo, 168 h.
Series [13] relates to HT-29. The series can be described thus: Antitumor activity against human HT-29 cells xenografted in athymic mouse assessed as tumor growth delay at 12.5 mg/kg, ip tid for 7 days (reference value: 6.9 1.5). As to conditions: route intraperitoneal. The series is classed as functional.
The target of series [14] is T2, hERG (KCNH2). The series can be described thus: Inhibition of human ERG overexpressed in HEK cells at 11 uM. The class given is cell-based, HEK293. Particulars: HEK cells overexpressing human ERG.

Voltage-gated inwardly rectifying potassium channel KCNH2, sequence (Q12809 whole entry): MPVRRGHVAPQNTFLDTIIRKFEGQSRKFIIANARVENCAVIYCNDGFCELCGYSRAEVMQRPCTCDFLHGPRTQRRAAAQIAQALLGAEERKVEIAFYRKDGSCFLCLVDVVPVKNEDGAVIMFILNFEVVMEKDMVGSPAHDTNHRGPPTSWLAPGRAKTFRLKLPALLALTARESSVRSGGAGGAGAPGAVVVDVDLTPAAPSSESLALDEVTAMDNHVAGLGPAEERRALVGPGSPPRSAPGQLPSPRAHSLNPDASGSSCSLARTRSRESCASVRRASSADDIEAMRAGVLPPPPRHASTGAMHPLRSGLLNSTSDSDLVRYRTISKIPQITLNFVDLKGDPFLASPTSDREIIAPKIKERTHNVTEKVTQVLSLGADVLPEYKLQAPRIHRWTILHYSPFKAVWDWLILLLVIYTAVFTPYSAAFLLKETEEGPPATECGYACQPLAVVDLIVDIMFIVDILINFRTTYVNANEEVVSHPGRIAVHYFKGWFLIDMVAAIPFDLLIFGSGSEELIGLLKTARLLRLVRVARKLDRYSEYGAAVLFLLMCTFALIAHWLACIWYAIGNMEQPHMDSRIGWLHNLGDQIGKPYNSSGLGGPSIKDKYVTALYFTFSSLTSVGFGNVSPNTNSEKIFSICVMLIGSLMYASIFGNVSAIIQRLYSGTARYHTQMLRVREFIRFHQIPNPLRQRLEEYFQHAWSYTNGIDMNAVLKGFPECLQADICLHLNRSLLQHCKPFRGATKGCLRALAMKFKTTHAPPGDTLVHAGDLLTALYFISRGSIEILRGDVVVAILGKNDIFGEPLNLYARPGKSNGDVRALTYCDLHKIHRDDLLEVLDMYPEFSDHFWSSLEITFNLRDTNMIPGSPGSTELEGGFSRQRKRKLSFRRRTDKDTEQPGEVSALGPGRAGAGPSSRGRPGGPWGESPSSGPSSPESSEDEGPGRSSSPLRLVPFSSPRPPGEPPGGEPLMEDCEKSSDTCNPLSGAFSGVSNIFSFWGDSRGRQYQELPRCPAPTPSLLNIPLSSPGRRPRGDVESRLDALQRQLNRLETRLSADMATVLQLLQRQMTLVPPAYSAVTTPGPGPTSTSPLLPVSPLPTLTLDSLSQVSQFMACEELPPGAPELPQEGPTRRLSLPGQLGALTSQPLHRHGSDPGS
T2 sequence (Q12809 whole entry): as above
Description for Caco-2: Permeability across apical to basolateral side in human Caco2 cells

In the case of `CNc1cc(Nc2cnc(C#N)c(O[C@H](C)CN(C)C)n2)ncc1Cl`, the IC50 was 1000 nM in series [1] and 20 nM in series [2].
`COc1cc(Nc2cnc(C#N)c(O[C@@H]3CCN(C)C3)n2)ncc1-c1cnn(C)c1`: the concentration at 6 h in series [3] was 6 nM; in [5], 7 nM. For the same compound, the values for the concentration at 1 h in series [4] and in series [6] were 264 nM and 1180 nM, respectively. Besides, the IC50 stood at 16000 nM in series [1] and 6.3 nM in [2]. Moreover, the metabolised at 0.5 h in the series “in vitro” was 18%.
`Nc1ccn([C@@H]2O[C@H](CO)[C@@H](O)C2(F)F)c(=O)n1` [GEMCITABINE]: the Activity result with Mus musculus [7], in the series on Mus musculus [8] and with Mus musculus [9] was “Non-toxic” each time. For the same compound, the Time worked out at 1.6 days in the series on SW-620, 2.3 days with HT-29 [10] and 7.2 days in the series on Calu-6.
With `C#Cc1cnc(Nc2cnc(C#N)c(O[C@H](C)CN(C)C)n2)cc1NC`, the results for the concentration at 6 h in series [3] and in [5] were 6 nM and 7 nM, respectively. Also, the concentration at 1 h in [4] is 439 nM; in [6] it was 833 nM. In series [2], this compound came in with an IC50 of 11 nM. In addition, the metabolised at 0.5 h in “in vitro” amounted to 40%.
For `CSc1cc(Nc2cnc(C#N)c(O[C@H](C)CN(C)C)n2)ncc1-c1cnn(C)c1`, the IC50 in series [1] is 8000 nM; in series [2] it was 27 nM.
In the case of `CNc1cc(Nc2cnc(C#N)c(O[C@H]3CCNC3)n2)ncc1-c1cnn(C)c1`, the concentration at 6 h in series [3] was found to be 2 nM; in series [5], 53 nM. The concentration at 1 h in series [4] worked out at 3 nM; in series [6] it was 254 nM. Also, on hERG (KCNH2) [11], the inhibition at 10 µM amounted to 37%. The same compound registered a metabolised at 0.5 h in the series “in vitro” of 12%.
Regarding `CNc1cc(Nc2cnc(C#N)c(O[C@H]3CCN(C)C3)n2)ncc1-c1cnn(C)c1`, the concentration at 6 h in series [3] was found to be 4 nM; in [5] it was 8 nM. The figures for the concentration at 1 h in series [4] and in [6] were 18 nM and 147 nM, respectively. Further, it took 3.4 nM to reach half-maximal inhibition in series [2] (IC50). Moreover, the metabolised at 0.5 h in “in vitro” is 19%.
For the compound `CNc1cc(Nc2cnc(C#N)c(O[C@H](C)CN(C)C)n2)ncc1C#CC(C)(C)O`, on hERG (KCNH2) [11], the inhibition at 10 µM was 59%. In [2], this compound came in with an IC50 of 2.9 nM.
For `CNc1cc(Nc2cnc(C#N)c(O[C@H](C)CN(C)C)n2)ncc1C(F)(F)F`, the concentration at 6 h in series [3] is 26 nM; in series [5], 33 nM. Moreover, the concentration at 1 h in series [4] amounted to 809 nM; in series [6] it was 1040 nM. Besides, the figures for the IC50 in series [1] and in series [2] were 1000 nM and 21 nM, respectively. This compound yielded a permeability in the series with Caco-2 of less than 4.6 ×10⁻⁶ cm/s. Further, the metabolised at 0.5 h in “in vitro” is 43%.
For the compound `CNc1cc(Nc2cnc(C#N)c(O[C@@H]3CCNC3)n2)ncc1-c1cnn(C)c1`, the inhibition at 10 µM on hERG (KCNH2) [11] was determined as 22%.
Consider `CNc1cc(Nc2cnc(C#N)c(O[C@H](C)CN(C)C)n2)ncc1C1CC1`, for which the concentration at 6 h in [3] is 8 nM; in series [5], 29 nM. Further, the concentration at 1 h in series [4] turned out to be 80 nM; in series [6], 417 nM. Besides, the IC50 in series [1] is 6000 nM; in series [2] it was 26 nM. In “in vitro”, this compound showed a metabolised at 0.5 h of 42%.
For `CCc1c2c(nc3ccc(OC(=O)N4CCC(N5CCCCC5)CC4)cc13)-c1cc3c(c(=O)n1C2)COC(=O)[C@]3(O)CC` [IRINOTECAN], in the series with Mus musculus [12], the Activity result is on record as “Non-toxic”. Further, the Time in the series with HT-29 [13] amounted to 6.4 days.
Turning to `COC(=O)c1cnc(Nc2cnc(C#N)c(O[C@@H]3CCNC3)n2)cc1OC`, on hERG (KCNH2) [14], the inhibition at 11 µM came out at 44%. In series [2], this compound gave an IC50 of 46.5 nM.
Consider `C[C@H](CN(C)C)Oc1nc(Nc2cc3cccc(Cl)c3cn2)cnc1C#N`, for which the midpoint of inhibition in series [1], the IC50, lay at 5000 nM.
With `COC(=O)c1cnc(Nc2cnc(C#N)c(O[C@@H]3CCNC3)n2)cc1SC`, the inhibition at 10 µM at hERG (KCNH2) [11] worked out at 25%. For the same compound, in series [2], 18 nM corresponded to half-maximal inhibition (IC50).
As for `CNc1cc(Nc2cnc(C#N)c(O[C@H](C)CN(C)C)n2)ncc1-c1cccc(F)c1`, on hERG (KCNH2) [14], the inhibition at 11 µM turned out to be 103%. The same compound displayed an IC50 in [2] of 36 nM.
Regarding `CNc1cc(Nc2cnc(C#N)c(O[C@H](C)CN(C)C)n2)ncc1C(=O)OC`, the half-inhibitory concentration (IC50) in series [1] was found to be 5000 nM; in [2] it was 7 nM. Also, in the series “in vitro”, the metabolised at 0.5 h turned out to be 49%.
Take `COC(=O)c1cnc(Nc2cnc(C#N)c(O[C@@H]3CCNC3)n2)cc1N(C)C`: the IC50 in [1] came to 30000 nM; in series [2] it was 8.8 nM.
For `COc1cc(Nc2cnc(C#N)c(O[C@@H]3CCNC3)n2)ncc1-c1cnn(C)c1`, in [2], the IC50 was less than 1 nM.
Regarding `CNc1ccnc(Nc2cnc(C#N)c(O[C@H](C)CN(C)C)n2)c1`, the inhibition at 10 µM at hERG (KCNH2) [11] is 71%. Besides, the IC50 in [2] amounted to 97 nM.

The record behind these values is ChEMBL document CHEMBL2203133 (J Med Chem, 2012).
